Patent US5646316A, “Bile acid inhibitors of metalloproteinase enzymes” (OsteoArthritis Sciences, Inc., priority 1995, dated 1997)
Like-named read-outs stand apart in the source and are kept apart here.

Assays:
Format in all cases: biochemical
collagenase = assay: Assay of Collagenase Inhibition Activity; conditions: at 10 μM of compound; 45 minutes at 37° C.
Method: (§1) Stromelysin was first activated by trypsin. This was done by preparing a reaction mixture in B-150 (B-150 consists of 150 mM NaCl, 20 mM Tris at pH 7.8 and 0.02% sodium azide) containing a final concentration of 4 μg/mL trypsin, 1.48 μg/mL of stromelysin, and 3.15 mM CaCl2. The reaction was incubated for 30 minutes at 37° C. and then quenched by adding soybean trypsin inhibitor to a final concentration of 43.6 μg/mL. ZnCl2 was added to the reaction mixture for a total concentration of 0.24 μM.
(§2) Following preparation of the solution of activated stromelysin, assay solutions were prepared for each inhibitor being tested. A control was also prepared. First, […] of activated stromelysin (about 45 μL from the solution of activated stromelysin) were aliquotted per assay tube. A 2.5 mM solution in 100% dimethyl sulfoxide (DMSO) was prepared for each inhibitor being tested and 1 μL from each inhibitor solution was added to one of the assay tubes. In addition, 1 μL of 100% DMSO was added to the control assay tube. All assay tubes were then pre-incubated for 5 minutes.
(§3) 5 μL of a previously prepared 50 μM solution of substrate in 15% DMSO were added to each assay tube. The substrate was a methoxycumarin developed by Knight et al. FEBS Lett. 296:263-66 (1992). The tubes were then incubated for 60 minutes, at which time the reaction was stopped with the addition of 750 μL of 0.1M NaAc pH 4.0 buffer.
(§4) Substrate hydrolysis was assessed by fluorescence using a slit width of 10:10, excitation at 328 nm and emission at 393 nm. The results of these assays are listed in Table I as percent inhibition at 10 μM of the bile acid provided compound tested or as the IC50.
(§5) The assay procedure for collagenase was the same as described in Example 13 for stromelysin except that the trypsin activation was performed for 45 minutes. In addition, the incubation of the assay tubes at 37° C. was only for 45 minutes, and the final enzyme concentration is 6 nm. The results of these assays are provided in Table I as percent inhibition at 10 μM of the compound tested.

gelatinase (72 (Kd)) = biological target: T1, gelatinase (72 (Kd) (Homo sapiens, UniProt P08253)); assay: Assay of Gelatinase Inhibition Activity (72 Kd gelatinase); conditions: 60 minutes at 37° C.; for inhibition at 10 µM: at 10 μM of compound, read-out: percent inhibition of gelatinase
T1 sequence (P08253 110-660): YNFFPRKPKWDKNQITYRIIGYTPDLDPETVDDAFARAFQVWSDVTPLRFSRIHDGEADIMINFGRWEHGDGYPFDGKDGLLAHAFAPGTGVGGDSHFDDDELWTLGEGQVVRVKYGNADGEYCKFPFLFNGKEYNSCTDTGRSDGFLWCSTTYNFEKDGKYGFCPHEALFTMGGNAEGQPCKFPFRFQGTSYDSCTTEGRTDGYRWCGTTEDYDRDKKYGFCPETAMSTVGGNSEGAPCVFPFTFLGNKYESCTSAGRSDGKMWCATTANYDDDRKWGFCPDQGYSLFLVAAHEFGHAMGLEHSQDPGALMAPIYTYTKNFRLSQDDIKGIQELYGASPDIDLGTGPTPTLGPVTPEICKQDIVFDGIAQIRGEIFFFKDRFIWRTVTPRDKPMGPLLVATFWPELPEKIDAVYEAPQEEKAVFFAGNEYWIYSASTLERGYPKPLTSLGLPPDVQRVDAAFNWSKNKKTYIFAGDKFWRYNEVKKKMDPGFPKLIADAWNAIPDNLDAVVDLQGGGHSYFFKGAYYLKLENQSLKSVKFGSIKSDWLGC
Method: as §1, §2, §3, §4
as §5, with “gelatinase (72 (Kd)” for “collagenase”, “60” for “45”, “was” for “was only”, “was 3” for “is 6”, “listed” for “provided”

stromelysin = stromelysin (Homo sapiens, UniProt P08254); assay: Assay of Stromelysin Inhibition Activity (fluorogenic substrate hydrolysis); conditions: for inhibition at 10 µM: read-out: percent inhibition of stromelysin; for IC50: 60 minutes incubation
stromelysin, sequence (P08254 100-477): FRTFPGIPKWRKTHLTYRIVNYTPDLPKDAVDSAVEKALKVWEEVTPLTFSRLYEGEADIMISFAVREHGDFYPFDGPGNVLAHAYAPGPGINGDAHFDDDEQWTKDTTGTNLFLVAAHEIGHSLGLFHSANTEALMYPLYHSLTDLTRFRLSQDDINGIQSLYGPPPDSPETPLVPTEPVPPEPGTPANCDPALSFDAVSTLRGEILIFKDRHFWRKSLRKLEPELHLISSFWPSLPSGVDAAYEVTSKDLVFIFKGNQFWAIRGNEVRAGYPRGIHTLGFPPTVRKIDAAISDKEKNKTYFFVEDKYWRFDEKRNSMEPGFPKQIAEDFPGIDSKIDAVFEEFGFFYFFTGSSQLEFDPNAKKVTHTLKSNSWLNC
Method: as §1, §2, §3, §4

C[C@H](CCC(=O)NO)[C@H]1CC[C@H]2[C@@H]3CC[C@@H]4C[C@H](O)CC[C@]4(C)[C@H]3CC[C@]12C [Compound 13, Lithocholylhydroxamic Acid]
percent inhibition of collagenase (collagenase): 35%
IC50 (gelatinase (72 (Kd))): 8 µM
inhibition at 10 µM (stromelysin; at 10 μM of compound): 56%

CCOC(=O)[C@H](CS)NC(=O)[C@H](Cc1ccccc1)NC(=O)CC[C@@H](C)[C@H]1CC[C@H]2[C@@H]3CC[C@@H]4C[C@H](O)CC[C@]4(C)[C@H]3CC[C@]12C [Compound 19, Lithocholyl-(L)-Phenylalanyl-(L)-Cysteine Ethyl Ester]
percent inhibition of collagenase (collagenase): 33%
inhibition at 10 µM (gelatinase (72 (Kd))): 47%
IC50 (stromelysin): 2 µM

CC(C)C[C@H](NC(=O)CC[C@@H](C)[C@H]1CC[C@H]2[C@@H]3CC[C@@H]4C[C@H](O)CC[C@]4(C)[C@H]3CC[C@]12C)C(=O)NO [Compound 9, Lithocholyl-(L)-Leucine Hydroxamic Acid]
percent inhibition of collagenase (collagenase): 27%
IC50 (gelatinase (72 (Kd))): 0.3 µM
IC50 (stromelysin): 1 µM

C[C@H](CCC(=O)N[C@@H](Cc1ccccc1)C(=O)NO)[C@H]1CC[C@H]2[C@@H]3CC[C@@H]4C[C@H](O)CC[C@]4(C)[C@H]3CC[C@]12C [Compound 15, Lithocholyl-(L)-Phenylalanine Hydroxamic Acid]
percent inhibition of collagenase (collagenase): 58%
inhibition at 10 µM (gelatinase (72 (Kd))): 47%
inhibition at 10 µM (stromelysin; at 10 μM of compound): 85%

CC(C)C[C@H](NC(=O)CC[C@@H](C)[C@H]1CC[C@H]2[C@@H]3[C@H](O)C[C@@H]4C[C@H](O)CC[C@]4(C)[C@H]3CC[C@]12C)C(=O)NO [Compound 10, Chenodeoxycholyl-(L)-Leucine Hydroxamic Acid]
percent inhibition of collagenase (collagenase): 8%
inhibition at 10 µM (gelatinase (72 (Kd))): 27%
IC50 (stromelysin): 5 µM

C[C@H](CCC(=O)N[C@@H](Cc1ccccc1)C(=O)NC1CCSC1=O)[C@H]1CC[C@H]2[C@@H]3CC[C@@H]4C[C@H](O)CC[C@]4(C)[C@H]3CC[C@]12C (stereo partly drawn) [Compound 20, Lithocholyl-Phenylalanylhomocysteine Thiolactone]
percent inhibition of collagenase (collagenase): 57%
inhibition at 10 µM (gelatinase (72 (Kd))): 30%
inhibition at 10 µM (stromelysin; at 10 μM of compound): 57%

C[C@H](CCC(=O)NCCC[N+](C)(C)CCCS(=O)(=O)[O-])[C@H]1CC[C@H]2[C@@H]3[C@H](O)C[C@@H]4C[C@H](O)CC[C@]4(C)[C@H]3C[C@H](O)[C@]12C [Compound 8, 3-[(3-cholamidopropyl)dimethylammonio)-1-propanesulfonate, reference compound]
percent inhibition of collagenase (collagenase): 22%
inhibition at 10 µM (stromelysin): 26%

C[C@H](CCC(=O)N[C@@H](Cc1ccccc1)C(=O)NO)[C@H]1CC[C@H]2[C@@H]3[C@H](O)C[C@@H]4C[C@H](O)CC[C@]4(C)[C@H]3CC[C@]12C [Compound 16, Chenodeoxycholyl-(L)-Phenylalanine Hydroxamic Acid]
percent inhibition of collagenase (collagenase): 38%
inhibition at 10 µM (gelatinase (72 (Kd))): 23%
inhibition at 10 µM (stromelysin; at 10 μM of compound): 80%

C[C@H](CCC(=O)NOCc1ccccc1)[C@H]1CC[C@H]2[C@@H]3[C@H](O)C[C@@H]4C[C@H](O)CC[C@]4(C)[C@H]3CC[C@]12C [Compound 12, Chenodeoxycholyl-O-Benzylhyroxamate]
percent inhibition of collagenase (collagenase): 21%
inhibition at 10 µM (stromelysin; at 10 μM of compound): 5%

C[C@H](CCC(=O)O)[C@H]1CC[C@H]2[C@@H]3CC[C@@H]4C[C@H](O)CC[C@]4(C)[C@H]3CC[C@]12C [Compound 1, Lithocholic acid, reference compound]
percent inhibition of collagenase (collagenase): 27%
IC50 (stromelysin): 38 µM
